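Results reflect a 48-hour exposure of cells in 96-well plates to compound at five concentrations. GI50 is the concentration that inhibits growth by half.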 The source made the active and inactive calls. Cut-off read from the data, not from the text of the source: active = GI50 up to about 1.1 µM and inactive = higher.
Tests used:
Test in all cases: NCI-60 cell line screen, 48 h
[1] = tested on: SNB-78
[2] = tested on: HOP-18
[3] = tested on: DLD-1
[4] = tested on: DMS-114
[5] = tested on: DMS-273
[6] = tested on: KM-20L2
[7] = tested on: M19-MEL
[8] = tested on: RXF 631
[9] = tested on: XF498

Measured: GI50

O=C1[C@H]2ON(c3ccccc3)C(c3ccc(Cl)cc3Cl)[C@H]2C(=O)N1c1ccc(Cc2ccc(N3C(=O)[C@@H]4ON(c5ccccc5)C(c5ccc(Cl)cc5Cl)[C@@H]4C3=O)cc2)cc1 (stereo partly drawn)
inactive: [1] > 100 µM | [2] > 100 µM | [3] > 100 µM | [4] > 100 µM | [5] > 100 µM | [6] > 100 µM | [7] > 100 µM

NC(Cc1ccc2oc3cc(=O)c4ccccc4c-3nc2c1)C(=O)O (stereo not drawn)
inactive: [1] > 100 µM | [2] 25.8 µM | [3] 34.8 µM | [4] 13.9 µM | [5] 22.4 µM | [6] 39.2 µM

COc1cc2c(cc1OC)[C@H]1C(COC(=O)Nc3ccccc3)CN1CC2 (stereo partly drawn)
inactive: [2] > 100 µM | [3] > 100 µM | [5] > 100 µM | [7] > 100 µM

CSc1n[n+]2c(s1)SCCC2
inactive: [1] > 100 µM | [8] > 100 µM | [2] 42.7 µM | [3] > 100 µM | [4] 62.5 µM | [5] > 100 µM | [9] > 100 µM | [7] > 100 µM

CCCCCCCCCCCCCCCCCC(=O)O[C@H](COC(=O)CCCCCCCCCCC)COC(=O)CCCCCCCCCCCCCCC
inactive: [8] > 100 µM | [2] > 100 µM | [3] > 100 µM | [4] > 100 µM | [5] > 100 µM | [6] > 100 µM | [7] > 100 µM

O=C(/C=C/c1ccc(O)cc1)c1ccc(O)cc1 [4,4'-DIHYDROXYCHALCONE]
inactive: [1] 45.2 µM | [2] 35.2 µM | [3] 18 µM | [4] 18.9 µM | [5] 16.5 µM | [6] 20.3 µM | [9] 19.3 µM | [7] 21.7 µM

O[C@]12c3ccccc3C1CCCC2N1CCOCC1 (stereo partly drawn)
inactive: [1] > 100 µM | [2] > 100 µM | [4] > 100 µM | [5] > 100 µM | [6] > 100 µM | [9] > 100 µM | [7] > 100 µM

Cc1cc2oc(=O)[nH]c(=S)c2c(C)c1C
inactive: [2] > 100 µM | [4] > 100 µM | [5] > 100 µM | [6] > 100 µM | [9] > 100 µM | [7] > 100 µM

COC(=O)C(C(=O)C(=O)Nc1ccc(OC)cc1[N+](=O)[O-])c1nc2cc(C)c(C)cc2nc1O (stereo not drawn)
inactive: [1] > 100 µM | [8] > 100 µM | [2] > 100 µM | [3] > 100 µM | [4] > 100 µM | [6] > 100 µM | [7] > 100 µM

Clc1ccc(-n2nnc(C3=NCCN3)c2-c2ccccc2)cc1
inactive: [1] > 100 µM | [2] > 100 µM | [3] > 100 µM | [4] > 100 µM | [5] > 100 µM | [6] > 100 µM | [9] > 100 µM | [7] > 100 µM

COc1cccc2c1C1(O)C2CCCCCCCCCC12OCCCO2 (stereo not drawn)
inactive: [1] > 100 µM | [2] > 100 µM | [3] 6.64 µM | [4] > 100 µM | [5] > 100 µM | [6] > 100 µM

CC(=O)COC(=O)CC(C)=O
inactive: [8] > 100 µM | [3] > 100 µM | [4] > 100 µM | [5] > 100 µM | [6] > 100 µM | [9] > 100 µM | [7] > 100 µM

NS(=O)(=O)c1ccc(Nc2c3ccccc3nc3c(C(=O)N4CCN(CCO)CC4)cccc23)cc1
inactive: [1] 69.3 µM | [2] > 100 µM | [4] 75.5 µM | [5] 82.6 µM | [6] > 100 µM | [9] > 100 µM | [7] > 100 µM

C=C1C(=O)OC2/C=C(\C)C3OC3/C=C(/C(=O)OC)C(OC(C)=O)C(OC(=O)C(C)(O)C(C)OC(C)=O)C12 (stereo not drawn)
inactive: [1] 2.53 µM | [8] 2.55 µM | [3] 2.39 µM | [4] 1.15 µM | [5] 1.57 µM | [9] 1.96 µM | [7] 2.39 µM

CN(CCc1ccccn1)/[N+]([O-])=N/O.CNCCc1ccccn1
inactive: [1] > 100 µM | [8] > 100 µM | [2] > 100 µM | [3] > 100 µM | [4] > 100 µM | [5] > 100 µM | [6] > 100 µM | [7] > 100 µM

O=C(c1ccc(Cl)cc1)c1ccc(OCCCOc2ccc(C(=O)c3ccc(Cl)cc3)cc2Cl)c(Cl)c1
inactive: [1] > 100 µM | [8] > 100 µM | [3] > 100 µM | [4] > 100 µM | [5] > 100 µM | [6] > 100 µM | [9] > 100 µM | [7] > 100 µM

Cc1ccc(S(=O)(=O)NC(=O)NC23CC4CC(CC(F)(C4)C2)C3)cc1
inactive: [1] > 100 µM | [3] > 100 µM | [4] > 100 µM | [5] > 100 µM | [6] > 100 µM | [9] > 100 µM | [7] > 100 µM

COc1cc(CC2c3cc(OC)c(OC)cc3CCN2C)ccc1O (stereo not drawn)
inactive: [1] > 100 µM | [2] > 100 µM | [3] > 100 µM | [6] > 100 µM | [9] > 100 µM

From ChEMBL document CHEMBL1201862, “PubChem BioAssay data set” (2004)
